Like-named read-outs stand apart in the source and are kept apart here.
Columns and labels:
CRAF = CRAF (Homo sapiens, UniProt P04049); test: CRAF kinase activity assay (ADP-Glo); format: biochemical; conditions: Table 3
Experimental: (§1) Compound preparation: solid samples of each substances in 1dram vials were suspended in DMSO (Fisher Scientific) at a stock concentration of 20 mM. Stocks were kept at −20° C. and protected from light. If solubility of the compound at 20 mM appeared to be an issue, the initial concentration of the DMSO stock was changed to 10 mM or 5 mM.
(§2) In vitro enzymatic reactions were used for evaluating compounds intrinsic activity against BRAF, CRAF and ARAF. For BRAF and CRAF, 0.375 nM of purified GST-tagged kinases (cat #B4062-10UG and cat #R1656-10UG respectively from Millipore Sigma) were incubated with 75 nM of kinase-dead MEK1 substrate (cat #40075; BPS Bioscience) in the presence of 10 μM of Ultrapure ATP (cat #V9102; Promega; part V915A) with and without the test compound in a buffer containing 50 mM HEPES pH 7.5, 10 mM MgCl2, 1 mM EDTA, 0.01% Brij-35 and 2 mM DTT. Separate reactions were performed with the MEK1 substrate and ATP as a blank control. ARAF, kinase reactions were rigorously the same with the exception that kinase concentration was raised to 3.75 nM (cat #1768-0000-1; Reaction Biology).
(§3) For compound treatment, 5 μL/well of test substance solution are placed in a 384-well proxyplate (Perkin Elmer) and mixed with 2× concentrated kinase reactions. The dilution series is selected so that nine concentrations cover a range from 100 nM to 0.01 nM. […] The final concentration of DMSO in the assay is set at 0.05%.
(§4) BRAF and CRAF kinase reactions were carried out for a total of 2 hours at 30° C. and then stopped by ½ dilution in ADP-Glo Reagent (cat #V9102; Promega; part V912C). Reactions were then incubated for 1 h at room temperature before addition of one volume of Kinase Detection Reagent (cat #V9102; Promega; part V917A). Plates were then equilibrated at room temperature for 30 minutes before detection of luminescence on a Synergy Neo2 plate reader (Biotek). The effect of each compound dilution on BRAF and CRAF kinase activity was expressed as % inhibition and calculated as follows. First, the internal 100% inhibition control (average of luminescence in kinase reactions comprising kinase dead MEK1 substrate alone) was subtracted from each data point. The average of DMSO (vehicle) controls (set as 0% inhibition) was established and used to calculate % inhibition:
(§5) IC50 values were obtained by plotting the kinase inhibition values and fitting the dose-activity curves using a log(agonist) versus response−variable slope (four parameters) function using either GraphPadPrism (V7.0) or Dotmatics Screening Ultra platform. Standards included in the ARAF kinase assay were Belvarafenib (MedChem Express cat #HY-109080; CAS #1446113-23-0), LXH254 (MedChem Express cat #HY-112089; CAS #1800398-38-2) and BGB283 (cat #HY-18957; CAS #1446090-79-4).

BRAF = biological target: T1, BRAF (Homo sapiens, UniProt P15056); test: BRAF kinase activity assay (ADP-Glo); format: biochemical; conditions: Table 3
T1 construct: GST; purchased Millipore Sigma B4062-10UG
T1 sequence (P15056 whole entry): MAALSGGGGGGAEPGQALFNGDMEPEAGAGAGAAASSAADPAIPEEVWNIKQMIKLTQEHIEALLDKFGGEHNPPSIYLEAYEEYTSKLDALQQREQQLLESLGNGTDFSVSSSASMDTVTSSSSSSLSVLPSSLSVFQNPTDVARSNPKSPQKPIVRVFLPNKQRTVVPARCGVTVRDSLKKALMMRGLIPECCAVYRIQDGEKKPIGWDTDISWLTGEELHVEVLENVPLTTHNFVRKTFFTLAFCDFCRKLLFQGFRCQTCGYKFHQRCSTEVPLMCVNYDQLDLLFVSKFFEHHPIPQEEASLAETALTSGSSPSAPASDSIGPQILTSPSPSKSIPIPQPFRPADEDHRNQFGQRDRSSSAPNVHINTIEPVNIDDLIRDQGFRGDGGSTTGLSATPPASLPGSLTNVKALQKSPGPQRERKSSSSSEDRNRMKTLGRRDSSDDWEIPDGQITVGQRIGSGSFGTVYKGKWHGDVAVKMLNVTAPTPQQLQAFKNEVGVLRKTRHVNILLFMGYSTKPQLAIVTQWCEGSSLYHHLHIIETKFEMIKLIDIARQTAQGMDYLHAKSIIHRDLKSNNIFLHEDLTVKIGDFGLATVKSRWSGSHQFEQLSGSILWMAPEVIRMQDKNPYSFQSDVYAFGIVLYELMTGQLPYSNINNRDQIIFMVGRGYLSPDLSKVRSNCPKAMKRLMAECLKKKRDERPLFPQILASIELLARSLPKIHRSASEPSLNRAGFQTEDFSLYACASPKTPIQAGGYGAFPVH
Experimental: as §1, §2, §3, §4, §5

HCT116 pERK = test: Phospho-ERK inhibition, AlphaLISA SureFire Ultra p-ERK 1/2; format: cell-based, human; conditions: for IC50: 1 h treatment; for HCT116 (Ymin %): lowest value of the pERK IC50 curve
Experimental: (§6) All cancer cell lines (A375, A101D, A2058, RKO, HT29 SK-MEL 30, IPC298, HepG2, HCT-116, Lovo, SW620, SW480, NCI-H358, NCI-H2122, Calu-6, NCIH2087, NCIH1755, NCIH1666 and Mewo) were obtained from ATCC and cultured in RPMI-1640 medium (Gibco) supplemented with 5% heat inactivated fetal bovine serum (FBS, Wisent) at 37° C. under 5% CO2. Cells were maintained in T175 flasks (Greiner). They were passaged by removing the culture medium, washing once in 10 mL of room temperature Phosphate Buffered Saline (PBS; Wisent) and incubating at 37° C. with 2 mL of 0.05% Trypsin (Thermo-Fisher). Trypsin was then inactivated by adding complete growth medium and the cells were then replated in a T175 culture dish at the appropriate dilution. All cell lines were routinely tested for mycoplasma contamination. Tissue type and mutational status of each cell line can be found in Table B.
(§7) AlphaLISA® SureFire® Ultra™ p-ERK ½ (Thr202/Tyr204) analysis was conducted on cells plated in 100 μL of complete RPMI-1640 growth medium in 96-well flat-bottomed transparent dishes (Costar) at a density indicated in Table C. Cells were maintained overnight at 37° C. under 5% CO2 before treatment with compounds' dilution series for one hour. The cell density in cells/cm^2 corresponds to cell number divided by the area of one well of a 96-well plate ([…]).
(§8) In a dilution series 100 μL/well of test substance dilution prepared in complete RPMI-1640 growth media was added to the cells. The dilution series is selected so that ten concentrations cover a range from 30 μM or 10 μM to 0.33 nM. If necessary, the initial concentration of 10 μM is increased to 100 μM or lowered to 1 μM (as in the case of A375 and NCIH1666 cells, which are generally more sensitive to the compounds) and further dilution is carried out accordingly. The final concentration of DMSO in the assay is set at 0.5%.
(§9) After treatment, media was removed, and cells were lysed in 50 μL of 1× AlphaScreen Ultra Lysis Buffer (Perkin Elmer). The AlphaLISA® SureFire® Ultra™ p-ERK ½ (Thr202/Tyr2O4) (PerkinElmer) reactions were performed with 5 μL of cell lysate according to the manufacturer's specifications in 384-well proxyplates (Perkin Elmer) followed by overnight incubation of the reactions at room temperature in a humidified chamber. After completion of the reactions, the signals were recorded on an EnVision plate reader (Perkin Elmer) using built in AlphaLISA® settings.
(§10) The effect of each compound dilution on the pERK signal was expressed in % inhibition and calculated as follows. An internal 100% inhibition control (1 μM trametinib, cat. No. HY-10999; MedChem Express; CAS No. 871700-17-3) was included in each plate and used as a measure of pERK background. First, the value obtained for trametinib was subtracted from each data point. The average of DMSO (vehicle) controls (set as 0% inhibition) was established and used to calculate % inhibition:
(§11) The ability of each compound to inhibit pERK signal was expressed as an IC50 value obtained by plotting the inhibition values for each data point of a dilution series and fitting the obtained curves using a log(agonist) versus response−variable slope (four parameters) function using GraphPadPrism (V7.0).
(§12) When present, paradoxical pERK induction is inferred from the negative % inhibition values observed in the pERK IC50 curves of a compound.

SW480 pERK = test: as above; format: cell-based, human; conditions: for IC50: 1 h treatment; for SW480 (Ymin %): lowest value of the pERK IC50 curve
Experimental: as §6, §7, §8, §9, §10, §11, §12

[1] = Table 2, read-out: SW480 PERK IC50 (UM)

Sequence of CRAF (P04049 whole entry): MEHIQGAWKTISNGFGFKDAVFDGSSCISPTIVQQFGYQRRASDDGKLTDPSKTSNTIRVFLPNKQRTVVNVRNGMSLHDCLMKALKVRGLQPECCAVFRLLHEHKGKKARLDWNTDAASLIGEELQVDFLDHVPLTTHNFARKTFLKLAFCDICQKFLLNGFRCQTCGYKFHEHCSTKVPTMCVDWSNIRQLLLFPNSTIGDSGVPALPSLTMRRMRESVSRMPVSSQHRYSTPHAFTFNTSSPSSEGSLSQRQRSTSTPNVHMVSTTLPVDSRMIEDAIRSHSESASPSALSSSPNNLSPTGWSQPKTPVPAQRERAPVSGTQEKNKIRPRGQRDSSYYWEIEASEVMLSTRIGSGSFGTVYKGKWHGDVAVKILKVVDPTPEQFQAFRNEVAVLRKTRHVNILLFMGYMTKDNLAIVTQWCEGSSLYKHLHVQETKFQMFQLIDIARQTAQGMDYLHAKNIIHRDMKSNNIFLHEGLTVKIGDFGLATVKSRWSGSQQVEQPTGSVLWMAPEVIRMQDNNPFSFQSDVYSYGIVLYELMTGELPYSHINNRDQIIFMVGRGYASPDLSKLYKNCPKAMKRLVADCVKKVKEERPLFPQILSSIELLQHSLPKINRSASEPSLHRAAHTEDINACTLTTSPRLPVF

Row | Structure (SMILES) | IC50 (CRAF) [nM] | IC50 (BRAF) [nM] | IC50 (HCT116 pERK; Table 3) [nM] | HCT116 (Ymin %) (HCT116 pERK; Table 3) [%] | IC50 (HCT116 pERK; Homo sapiens, HCT-116, Table 3) [nM] | IC50 (SW480 pERK; Table 3, read-out: SW480 PERK IC50) [µM] | SW480 (Ymin %) (SW480 pERK; Table 3) [%] | IC50 (SW480 pERK; [1]) [µM] | SW480 (Ymin %) (SW480 pERK; Table 2) [%] | IC50 (HCT116 pERK; Table 2) [nM] | HCT116 (Ymin %) (HCT116 pERK; Table 2) [%]
1 | COc1ccc(S(=O)(=O)Nc2ccc(F)c(Nc3ncnc4cnc(-n5cnc6c(N)cccc65)nc34)c2F)c(C)c1F [Example 111] | < 10 | 1 to 10 | < 500 | −8.1 | – | – | – | – | – | – | –
2 | Cc1c(F)cccc1S(=O)(=O)Nc1ccc(F)c(Nc2ncnc3cnc(-n4nc(C(=O)N5CCOCC5)c5ccccc54)nc23)c1F [Example 110] | 10 to 50 | < 1 | < 500 | −3.7 | – | – | – | – | – | – | –
3 | Cc1c(F)cccc1S(=O)(=O)Nc1ccc(F)c(Nc2ncnc3cnc(-n4nc(C(=O)N5CCN(C)CC5)c5ccccc54)nc23)c1F [Example 104] | > 50 | < 1 | – | – | < 500 | – | – | – | – | – | –
4 | COc1ccc(S(=O)(=O)Nc2ccc(F)c(Nc3ncnc4cnc(-n5cnc6ccccc65)nc34)c2F)c(C)c1F [Example 116] | > 50 | 1 to 10 | < 500 | −1 | – | – | – | – | – | – | –
5 | Cc1c(F)cccc1S(=O)(=O)Nc1ccc(F)c(Nc2ncnc3cnc(-n4cc(C(=O)N5CCOCC5)c5ccccc54)nc23)c1F [Example 100] | 10 to 50 | < 1 | < 500 | 2.2 | – | – | – | – | – | – | –
6 | CCC1(O)CCN(c2cccc3c2ncn3-c2ncc3ncnc(Nc4c(F)ccc(NS(=O)(=O)c5cccc(C)c5Cl)c4F)c3n2)CC1 [Example 153] | 10 to 50 | 1 to 10 | < 500 | −6 | – | – | – | – | – | – | –
7 | Cc1c(F)cccc1S(=O)(=O)Nc1ccc(F)c(Nc2ncnc3cnc(-n4nc(C(=O)N5CCC[C@H](O)C5)c5ccccc54)nc23)c1F [Example 109] | 10 to 50 | < 1 | < 500 | −6.5 | – | – | – | – | – | – | –
8 | COc1ccc(S(=O)(=O)Nc2ccc(F)c(Nc3ncnc4cnc(-n5cnc6ccccc65)nc34)c2F)c(C)c1Cl [Example 115] | 10 to 50 | 1 to 10 | < 500 | 2 | – | – | – | – | – | – | –
9 | COc1ccc(S(=O)(=O)Nc2ccc(F)c(Nc3ncnc4cnc(N5CCC(O)C5)nc34)c2F)cc1 (centres unmarked) [Example 41] | – | – | 10000 to 30000 | 13 | – | 10 to 30 | 6 | – | – | – | –
10 | CSc1ncc2ncnc(Nc3c(F)ccc(NS(=O)(=O)c4ccc5c(c4)CCO5)c3F)c2n1 [Example 4] | – | – | – | – | – | – | – | 1 to 10 | −2 | 1000 to 10000 | −5
11 | CSc1ncc2ncnc(Nc3c(F)ccc(NS(=O)(=O)c4ccc(Br)cc4C)c3F)c2n1 [Example 17] | – | – | – | – | – | – | – | 1 to 10 | 3 | 10000 to 30000 | 5
12 | CSc1ncc2ncnc(Nc3c(F)ccc(NS(=O)(=O)c4ccc(F)cc4C#N)c3F)c2n1 [Example 10] | – | – | – | – | – | – | – | 1 to 10 | −9 | 10000 to 30000 | 9

— patent publication US20240239801A1, “PYRIMIDO[5,4,D]PYRIMIDINE COMPOUNDS, COMPOSITIONS COMPRISING THEM AND USES THEREOF” (Université de Montréal, priority 2021, published 2024)
